Test results from patent US10633417B2 (priority 2013, dated 2020).

Legend:
human α9α10 nAChR = human α9α10 nAChR (Homo sapiens, UniProt Q9GZZ6+Q9UGM1); test: cell-based; type: cell-based
Sprague Dawley rats = details: rat, in vivo
Sprague-Dawley rats [1] = details: rat, in vivo
Sprague-Dawley rats [2] = details: rat, in vivo; remark: listed apart in the source
Sprague-Dawley rats [3] = details: rat, in vivo; remark: listed apart in the source
Sprague-Dawley rats [4] = details: rat, in vivo; remark: listed apart in the source

Sequence of human α9α10 nAChR (Q9UGM1 26-479 limits assumed): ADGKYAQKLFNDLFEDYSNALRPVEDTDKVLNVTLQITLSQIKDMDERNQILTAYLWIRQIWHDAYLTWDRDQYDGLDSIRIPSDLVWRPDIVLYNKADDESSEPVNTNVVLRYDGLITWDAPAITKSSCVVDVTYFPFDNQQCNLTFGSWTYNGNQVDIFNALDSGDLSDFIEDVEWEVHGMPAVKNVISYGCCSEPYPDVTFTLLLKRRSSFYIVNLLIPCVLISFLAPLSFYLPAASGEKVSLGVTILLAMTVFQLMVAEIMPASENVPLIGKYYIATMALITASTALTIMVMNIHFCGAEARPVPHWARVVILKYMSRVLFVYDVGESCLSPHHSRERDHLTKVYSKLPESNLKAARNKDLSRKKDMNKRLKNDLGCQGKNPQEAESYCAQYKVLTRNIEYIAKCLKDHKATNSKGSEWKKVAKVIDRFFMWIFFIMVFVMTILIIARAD
Sequence of human α9α10 nAChR (Q9GZZ6 25-450 limits assumed): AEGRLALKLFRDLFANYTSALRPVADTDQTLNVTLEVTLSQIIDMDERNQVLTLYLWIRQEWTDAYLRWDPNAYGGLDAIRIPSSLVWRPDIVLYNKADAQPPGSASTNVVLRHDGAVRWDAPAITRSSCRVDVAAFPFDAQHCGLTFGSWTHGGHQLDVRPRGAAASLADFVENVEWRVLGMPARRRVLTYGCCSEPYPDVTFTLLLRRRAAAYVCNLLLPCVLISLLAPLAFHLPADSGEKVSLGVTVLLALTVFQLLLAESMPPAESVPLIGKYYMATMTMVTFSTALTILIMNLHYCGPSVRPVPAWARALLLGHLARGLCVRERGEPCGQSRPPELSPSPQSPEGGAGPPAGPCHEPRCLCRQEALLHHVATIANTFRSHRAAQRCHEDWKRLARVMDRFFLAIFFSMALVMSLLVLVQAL

Molecule	Fold improvement (human α9α10 nAChR)	IC50 (human α9α10 nAChR) [nM]	also measured
C[C@@H](O)[C@@H]1NC(=O)[C@@H]2CSSC[C@@H](C(=O)N[C@@H](CCCNC(=N)N)C(=O)N[C@@H](CCCNC(=N)N)C(=O)N[C@@H](CCCNC(=N)N)C(=O)O)NC(=O)[C@H](CCC(N)=O)NC(=O)[C@H](Cc3ccc(O)c(I)c3)NC(=O)[C@H](CCCNC(N)=O)NC(=O)[C@H](CSSC[C@H](NC(=O)CN)C(=O)N2)NC(=O)[C@H](CCCNC(=N)N)NC(=O)[C@@H]2CCCN2C(=O)[C@H](CC(=O)O)NC1=O [Analog 4]	109 fold	4.55	–
C[C@@H](O)[C@@H]1NC(=O)[C@@H]2CSSC[C@@H](C(=O)N[C@@H](Cc3ccc(O)cc3)C(=O)N[C@@H](CCCNC(=N)N)C(=O)N[C@@H](CCCNC(=N)N)C(=O)O)NC(=O)[C@H](CCC(N)=O)NC(=O)[C@H](Cc3ccc(O)c(I)c3)NC(=O)[C@H](CCCNC(N)=O)NC(=O)[C@H](CSSC[C@H](NC(=O)CN)C(=O)N2)NC(=O)[C@H](CCCNC(=N)N)NC(=O)[C@@H]2CCCN2C(=O)[C@H](CC(=O)O)NC1=O [Analog 5]	325 fold	1.52	–
C[C@@H](O)[C@@H]1NC(=O)[C@@H]2CSSC[C@@H](C(=O)N[C@@H](CCCNC(=N)N)C(=O)N[C@@H](CCCNC(=N)N)C(=O)N[C@@H](Cc3ccc(O)cc3)C(=O)O)NC(=O)[C@H](CCC(N)=O)NC(=O)[C@H](Cc3ccc(O)c(I)c3)NC(=O)[C@H](CCCNC(N)=O)NC(=O)[C@H](CSSC[C@H](NC(=O)CN)C(=O)N2)NC(=O)[C@H](CCCNC(=N)N)NC(=O)[C@@H]2CCCN2C(=O)[C@H](CC(=O)O)NC1=O [Analog 6]	120 fold	4.11	–
C[C@@H](O)[C@@H]1NC(=O)[C@@H]2CSSC[C@@H](C(=O)N[C@@H](Cc3ccccc3)C(=O)O)NC(=O)[C@H](CCC(N)=O)NC(=O)[C@H](Cc3ccc(O)c(I)c3)NC(=O)[C@H](CCCNC(N)=O)NC(=O)[C@H](CSSC[C@H](NC(=O)CN)C(=O)N2)NC(=O)[C@H](CCCNC(=N)N)NC(=O)[C@@H]2CCCN2C(=O)[C@H](CC(=O)O)NC1=O [Analog 7]	470 fold	1.05	–
C[C@@H](O)[C@@H]1NC(=O)[C@@H]2CSSC[C@@H](C(=O)N[C@@H](Cc3c[nH]c4ccccc34)C(=O)O)NC(=O)[C@H](CCC(N)=O)NC(=O)[C@H](Cc3ccc(O)c(I)c3)NC(=O)[C@H](CCCNC(N)=O)NC(=O)[C@H](CSSC[C@H](NC(=O)CN)C(=O)N2)NC(=O)[C@H](CCCNC(=N)N)NC(=O)[C@@H]2CCCN2C(=O)[C@H](CC(=O)O)NC1=O [Analog 8]	236 fold	2.09	–
C[C@@H](O)[C@@H]1NC(=O)[C@@H]2CSSC[C@@H](C(=O)N[C@@H](Cc3ccc(O)cc3)C(=O)N[C@@H](Cc3ccc(O)cc3)C(=O)O)NC(=O)[C@H](CCC(N)=O)NC(=O)[C@H](Cc3ccc(O)c(I)c3)NC(=O)[C@H](CCCNC(N)=O)NC(=O)[C@H](CSSC[C@H](NC(=O)CN)C(=O)N2)NC(=O)[C@H](CCCNC(=N)N)NC(=O)[C@@H]2CCCN2C(=O)[C@H](CC(=O)O)NC1=O [Analog 9]	553 fold	0.893	–
C[C@@H](O)[C@@H]1NC(=O)[C@@H]2CSSC[C@@H](C(=O)N[C@@H](Cc3ccc(O)cc3)C(=O)N[C@@H](CCCNC(=N)N)C(=O)O)NC(=O)[C@H](CCC(N)=O)NC(=O)[C@H](Cc3ccc(O)c(I)c3)NC(=O)[C@H](CCCNC(N)=O)NC(=O)[C@H](CSSC[C@H](NC(=O)CN)C(=O)N2)NC(=O)[C@H](CCCNC(=N)N)NC(=O)[C@@H]2CCCN2C(=O)[C@H](CC(=O)O)NC1=O [Analog 10]	598 fold	0.826	–
C[C@@H](O)[C@@H]1NC(=O)[C@@H]2CSSC[C@@H](C(=O)N[C@@H](Cc3ccc(O)cc3)C(=O)O)NC(=O)[C@H](CCC(N)=O)NC(=O)[C@H](Cc3ccc(O)c(I)c3)NC(=O)[C@H](CCCNC(=N)N)NC(=O)[C@H](CSSC[C@H](NC(=O)CN)C(=O)N2)NC(=O)[C@H](CCCNC(=N)N)NC(=O)[C@@H]2CCCN2C(=O)[C@H](CC(=O)O)NC1=O [Analog 11]	1,123 fold	–	–
C[C@@H](O)[C@@H]1NC(=O)[C@@H]2C[Se]SC[C@@H](C(=O)N[C@@H](CCCNC(=N)N)C(=O)O)NC(=O)[C@H](CCC(N)=O)NC(=O)[C@H](Cc3ccc(O)c(I)c3)NC(=O)[C@H](CCCNC(N)=O)NC(=O)[C@H](CS[Se]C[C@H](NC(=O)CN)C(=O)N2)NC(=O)[C@H](CCCNC(=N)N)NC(=O)[C@@H]2CCCN2C(=O)[C@H](CC(=O)O)NC1=O [SEQ ID NO:20, GX4X4TDPRCX2X3QCR]	5.7 fold	–	fold increase in potency on the human receptor (human α9α10 nAChR): 10 fold
GCCTDPRCRX3QCY [Analog 11]	–	–	burn-induced thermal hyperalgesia (Hargraves method) (Sprague Dawley rats): significantly reduced
GCCTDPRCX2X3QCRRR [Analog 4]	–	–	potency on the human receptor after further optimization of Analog 2 (human α9α10 nAChR): improved potency
GCCTDPRCX2X3QCY [Analog 3]	–	–	potency on the human receptor after further optimization of Analog 2 (human α9α10 nAChR): improved potency; analgesic effect in OXA chemotherapy induced neuropathic pain (Sprague-Dawley rats [1]): analgesic effect; efficacy on mechanical hyperalgesia 24 h after injection (Sprague-Dawley rats [2]): still significant; pain threshold (mechanical hyperalgesia) 30 min after injection (Sprague-Dawley rats [2]): acutely increased pain threshold; prevention of OXA-induced mechanical hyperalgesia (Sprague-Dawley rats [2]): significantly prevented; OXA-induced pain threshold decrease (von Frey), day 7, 30 min (Sprague-Dawley rats [3]): reverted; activity on mechanical allodynia (von Frey), days 14 and 21 (Sprague-Dawley rats [3]): active; analgesic effect (von Frey), day 7, 24 h later (Sprague-Dawley rats [3]): not observed; prevention of OXA-induced cold allodynia, day 7 (Sprague-Dawley rats [4]): able to prevent OXA-induced cold allodynia; prevention of OXA-induced cold allodynia, day 14 and 21 (Sprague-Dawley rats [4]): able to prevent OXA-induced cold allodynia
